Measurements from paper PMC10630452, “The tumor-enriched small molecule gambogic amide suppresses glioma by targeting WDR1-dependent cytoskeleton remodeling” (Signal Transduction and Targeted Therapy, 2023).

Legend:
[1] = test system: GSC2 intracranial xenograft; test: GSC2-derived intracranial xenograft model; type: in vivo, nude mice; details: 1 mg/kg i.v. daily for 13 days
Procedure: Fig. 3 The inhibitory effects of GA-amide in glioma stem cell-derived mouse models and transgenic mouse models. a, b GSC2 cells were implanted s.c. into nude mice. Mice were treated with control (DMSO) (n = 7) or GA-amide (2 mg/kg) (n = 8) via i.p. injection once daily for 11 days, after which a photograph (a) was taken to show the tumor volume, and the tumor volume was calculated by a modified ellipsoid formula in (b). c, d GSC2 cells were implanted intracranially into nude mice. Mice were injected i.v. with control (n = 8) or 1 mg/kg GA-amide (n = 8) daily for 13 days, the Mantel‒Cox log–rank test was used for analysis, and the relative survival curves are shown in (c). The body weights are shown in (d). e In vivo efficacy studies of GA-amide using transgenic mouse models. Glioma was induced in transgenic C57BL/6 mice by injection of pTomo-Ras-sip53 lentivirus, and the strategy is shown. f, g MRI analysis was used to group mice into the control (n = 7) and GA-amide-treated groups (n = 8) before treatment. […]
For the intracranial xenograft mouse models, 1 × 10^5 GSC2 or U87MG-SLC cells were injected into the frontal cortex (1 mm rostral to the bregma, 2 mm lateral to the midline, and 3 mm deep) using a microsyringe (Hamilton). […] The tumor size was measured by MRI, and survival analysis was performed in a blinded manner.

[2] = Acute toxicity assay, body weight; type: in vivo, mice; details: low dose 1 mg/kg, high dose 10 mg/kg, one-time i.v.
Procedure: a Hematoxylin and eosin staining of sections from control and GA-amide-treated livers, kidney and small intestines, scale bars were shown in the panel. b Persistent records of the body weights and the statistical results of the body weight changes after one-time i.v. treatments of control (DMSO), 1 mg/kg GA-amide and 10 mg/kg GA-amide (n = 6, for control and 1mg/kg GA-amide; n = 5, for 10mg/kg GA-amide) were shown.

U87MG-SLC cells (GSC) = test: IC50 assay (MTS cell viability); type: cell-based; details: 48 h
Procedure: (§1) Four PDC lines (T12-1, T12-2, T2-4, T19-1) obtained from the Beijing Tiantan Hospital[53] and three GSC lines (GSC2, U87MG-SLC, U251-SLC) were established and verified in our previous work.[17] Two GCSC lines were kindly provided by Dr. Ran.[54] These cell lines were cultured in neurobasal medium (Gibco) containing 2% B27 (Gibco), 1% 100 × Antibiotic-Antimycotic (Gibco), 2 mmol/L L-glutamine (catalog SH30034.01, HyClone), 20 ng/mL bFGF (catalog 100-18B-50UG, PeproTech), 20 ng/mL EGF (catalog AF-100-15-100UG, PeproTech), and 10 μg/mL heparin (Sigma‒Aldrich). H1-NSCs obtained from D.Q. Pei’s laboratory (Guangzhou Institutes of Biomedicine and Health, Chinese Academy of Sciences, Guangzhou, China), were cultured in the same medium as the PDCs, with the addition of 1% N-2 supplement (Gibco, Thermo Fisher Scientific). The human astrocyte (HA) cell line was purchased from ScienCell and cultured in commercial astrocyte medium (catalog 1801, ScienCell) supplemented with 1% AGS (ScienCell), 2% FBS (ScienCell) and 1% P/S solution (ScienCell). Regarding the GC cell lines, U87MG cells were purchased from the American Type Culture Collection (ATCC), and U251 cells were purchased from the Cell Center of Peking Union Medical College. The GC cells were cultured in DMEM (Gibco) supplemented with 10% FBS (ScienCell) and 1% 100 × Antibiotic-Antimycotic.
(§2) Cells were seeded in 96-well plates and treated with 0, 0.03, 0.1, 0.3, 1, 3, 10, or 30 μM GA-amide (Santa Cruz) in triplicate. After 48 h of incubation, cell viability was quantified using the MTS assay, and the GA-amide cytotoxicity curve was estimated using GraphPad Prism.

T12-2 cells (PDC) = test: IC50 assay (MTS cell viability); type: cell-based; details: Homo sapiens, T12-2, PDC, 48 h
Procedure: as §1, §2

BGC-823-SLC cells (GCSC) = test: IC50 assay (MTS cell viability); type: cell-based; details: 48 h
Procedure: as §1, §2

T12-1 cells (PDC) = test: IC50 assay (MTS cell viability); type: cell-based; details: Homo sapiens, T12-1, PDC, 48 h
Procedure: as §1, §2

GSC2 cells (GSC) = test: IC50 assay (MTS cell viability); type: cell-based; details: 48 h
Procedure: as §1, §2

T2-4 cells (PDC) = test: IC50 assay (MTS cell viability); type: cell-based; details: Homo sapiens, T2-4, PDC, 48 h
Procedure: as §1, §2

U251 cells (GC) = test: IC50 assay (MTS cell viability); type: cell-based; details: Homo sapiens, U-251, 48 h
Procedure: as §1, §2

U251-SLC cells (GSC) = test: IC50 assay (MTS cell viability); type: cell-based; details: 48 h
Procedure: as §1, §2

SNU5-SLC cells (GCSC) = test: IC50 assay (MTS cell viability); type: cell-based; details: 48 h
Procedure: as §1, §2

U87MG cells (GC) = test: IC50 assay (MTS cell viability); type: cell-based; details: Homo sapiens, U-87 MG, 48 h
Procedure: as §1, §2

[3] = test system: glioma-related cells (PDCs, GCs and GSCs); test: IC50 assay (MTS cell viability), span over cell lines; type: cell-based; details: span over PDC, GC and GSC lines
Procedure: as §1, with “Regarding the GC cell lines, U87MG cells were purchased from the American Type Culture Collection (ATCC), and U251 cells were purchased from the Cell Center of Peking Union Medical College. The GC cells were cultured in DMEM (Gibco) supplemented with 10% FBS (ScienCell) and 1% 100 × Antibiotic-Antimycotic.” left out
as §2

PDCs = test: Apoptosis assay (annexin V/PI flow cytometry); type: cell-based, human; details: 4 h, varying concentrations
Procedure: An apoptosis detection kit (KeyGEN BioTECH) was used for the PDC apoptosis assay. After treatment with different concentrations of GA-amide, cells were collected and resuspended in 100 µL of binding buffer with 1 µl FITC Annexin V and 1 µl PI for 15 min at room temperature in the dark. The cell suspensions were analyzed by flow cytometry within 1 h.

Compound: CC(C)=CCC[C@]1(C)C=Cc2c(O)c3c(c(CC=C(C)C)c2O1)O[C@]12C(=C[C@@H]4CC1C(C)(C)O[C@@]2(C/C=C(/C)C(N)=O)C4=O)C3=O [GA-amide, gambogic amide]
- mouse body weight versus control [1]: no significant difference in mouse body weight
- survival [1]: prolonged survival times
- body weight after a single injection [2]: did not change the body weight
- IC50 (U87MG-SLC cells (GSC)): 399 nM
- IC50 (T12-2 cells (PDC)): 286 nM
- IC50 (BGC-823-SLC cells (GCSC)): 870 nM
- IC50 (T12-1 cells (PDC)): 249 nM
- IC50 (GSC2 cells (GSC)): 133 nM
- IC50 (T2-4 cells (PDC)): 167 nM
- IC50 (U251 cells (GC)): 168 nM
- IC50 (U251-SLC cells (GSC)): 214 nM
- IC50 (SNU5-SLC cells (GCSC)): 962 nM
- IC50 (U87MG cells (GC)): 231 nM
- IC50 [3]: 133 to 399 nM
- apoptosis (annexin V/PI) (PDCs): significantly induced the apoptosis of PDCs in a dose-dependent manner
